# From PubChem BioAssay (NCI)
#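 Tested at 5 concentrations; 48 h exposure; 96-well plates; endpoints linearly interpolated, else capped at highest concentration. GI50 is the concentration that inhibits growth by half. TGI: total growth inhibition.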
# Experiments:
# Assay in all cases: NCI anticancer screen, dose series, 48 h
# [1] = system: NCI-H226 lung
# [2] = system: A549 NSCLC
# [3] = system: MDA-MB-435
# [4] = system: NCI/ADR-RES ovarian
# [5] = system: SF-295 CNS
# [6] = system: NCI-H460 lung
# [7] = system: MDA-MB-231 breast
# [8] = system: OVCAR-4 ovarian
# [9] = system: HCC-2998 colon
# [10] = system: KM12 colon
Compound,TGI [1],GI50 [2],TGI [2],GI50 [3],TGI [3],GI50 [4],TGI [4],GI50 [5],TGI [5],GI50 [6],TGI [6],GI50 [7],TGI [7],GI50 [8],TGI [8],GI50 [9],TGI [9],GI50 [10],TGI [10],GI50 [1]
COc1cccc(CNc2ncnc3c2ncn3C2OC(CO)C(O)C2O)c1O (configuration not stated),> 100 µM,1.05 µM,> 100 µM,0.111 µM,2.78 µM,0.168 µM,> 100 µM,0.165 µM,0.66 µM,0.931 µM,> 100 µM,0.0302 µM,0.111 µM,0.105 µM,> 100 µM,0.391 µM,> 38.2 µM,12.9 µM,> 100 µM,–
Nc1nc(N)c2cc(Sc3ccc4ccccc4c3)ccc2n1,18.1 µM,–,12 µM,–,2.54 µM,–,4.35 µM,–,4.91 µM,–,2.26 µM,–,5.28 µM,–,5.26 µM,0.878 µM,2.13 µM,–,3.25 µM,–
Cc1cc(CCl)c(C)cc1CCl,16 µM,1.66 µM,5.09 µM,1.84 µM,4.69 µM,2.07 µM,7.77 µM,0.84 µM,4.61 µM,0.12 µM,1.43 µM,4.08 µM,18.6 µM,3.4 µM,12.8 µM,1.54 µM,3.51 µM,0.845 µM,2.42 µM,2.89 µM
C=C(CN1CCc2c([nH]c3ccccc23)C1)c1ccc(C(=O)Nc2ccccc2N)cc1,10.1 µM,4.85 µM,32 µM,8.47 µM,17.7 µM,1.51 µM,17.1 µM,16.6 µM,27.8 µM,3.57 µM,21 µM,2.74 µM,12.9 µM,5.48 µM,13.5 µM,0.731 µM,1.91 µM,3.42 µM,12.6 µM,1.32 µM
FC(F)(F)c1ccc(-c2nn3ncccc3c2-c2ccnc(Nc3ccc4c(c3)OCCO4)n2)cc1,> 25 µM,21.4 µM,> 25 µM,10.7 µM,> 25 µM,9.6 µM,> 25 µM,6.91 µM,> 25 µM,11.9 µM,> 25 µM,3.49 µM,> 21.9 µM,10.2 µM,> 25 µM,6.56 µM,> 25 µM,10.7 µM,> 25 µM,> 20.5 µM
CC(C)(C)[Si](C)(C)OC1[C@@H](CNC(N)=O)O[C@@H](n2cnc3c(NC(=O)Nc4ccccc4)ncnc32)[C@H]1O[Si](C)(C)C(C)(C)C (some centres not stated),11.7 µM,1.98 µM,7.82 µM,2.21 µM,8.51 µM,2.93 µM,9.81 µM,2.04 µM,7.9 µM,1.02 µM,1.98 µM,5.49 µM,12 µM,2.48 µM,10.1 µM,1.6 µM,6.18 µM,1.09 µM,2.2 µM,5.39 µM
COc1cc(F)ccc1-c1cc(Nc2cc(CS(C)(=N)=O)ccn2)ncc1F (configuration not stated),> 100 µM,0.105 µM,> 100 µM,0.107 µM,> 100 µM,0.166 µM,> 36.6 µM,0.0662 µM,> 100 µM,0.0593 µM,> 100 µM,0.0974 µM,> 100 µM,0.227 µM,–,0.184 µM,–,0.0479 µM,15.6 µM,0.0375 µM
COc1ccc(C2=NC(=O)NC2c2ccc(OC)cc2)cc1 (configuration not stated),> 100 µM,11.8 µM,> 100 µM,1.73 µM,4.56 µM,4.38 µM,58.5 µM,5.35 µM,47.5 µM,6.73 µM,51.8 µM,12.3 µM,> 100 µM,31.5 µM,> 100 µM,13 µM,33.6 µM,4.5 µM,29.5 µM,14.8 µM
CC(=O)c1cccc(NC(=O)C(=O)c2c(O)c3ccccc3oc2=O)c1,> 100 µM,–,> 100 µM,–,> 100 µM,–,> 100 µM,–,> 100 µM,–,> 100 µM,–,> 100 µM,–,> 100 µM,–,> 100 µM,–,> 100 µM,–
C/C(=C(/c1ccccc1)c1ccc(OCC(O)CNCCN2CCOCC2)cc1)c1ccccc1 (configuration not stated),29.3 µM,3.99 µM,15.6 µM,1.67 µM,3.09 µM,4.92 µM,17.2 µM,1.92 µM,3.63 µM,1.8 µM,3.4 µM,1.78 µM,3.83 µM,3.82 µM,14.4 µM,1.93 µM,3.43 µM,2.73 µM,8.33 µM,12.1 µM
CN(Cc1ccc(F)cc1)c1ccc(CO)c(Cl)c1,0.278 µM,5.54 µM,> 60.1 µM,44.7 µM,> 100 µM,17.7 µM,> 64.3 µM,3.38 µM,> 62.3 µM,1.41 µM,13.9 µM,28.7 µM,> 100 µM,2.22 µM,19.7 µM,14.9 µM,57 µM,27.1 µM,> 76.9 µM,0.126 µM
COc1ccc(-c2c(C#N)c(N)nc(N3CCOCC3)c2C#N)cc1,> 100 µM,29.4 µM,> 100 µM,28.5 µM,> 100 µM,20.6 µM,87.3 µM,15 µM,50.1 µM,29.9 µM,> 100 µM,11 µM,35.1 µM,47 µM,> 100 µM,13 µM,31.6 µM,21.7 µM,87.4 µM,26.3 µM
Nc1c(C(=O)c2cccc(C#CCN3CCCCC3)c2)cnn1-c1ccc(F)cc1,> 25 µM,> 25 µM,> 25 µM,15.3 µM,> 25 µM,> 19.9 µM,> 25 µM,> 25 µM,> 25 µM,> 25 µM,> 25 µM,> 25 µM,> 25 µM,> 22.6 µM,> 25 µM,> 25 µM,> 25 µM,18.7 µM,> 25 µM,> 23.4 µM
CCCCCCCCCc1ccc(OCCOCCOCCOCCOCCOCCOCCOCCOCCO)cc1,1.77 µM,0.414 µM,3.69 µM,0.832 µM,3.05 µM,0.268 µM,3.94 µM,0.304 µM,1.96 µM,0.301 µM,1.65 µM,0.668 µM,1.51 µM,0.131 µM,5.04 µM,0.75 µM,1.85 µM,0.598 µM,4.02 µM,0.561 µM
O=C(CC1(O)C(=O)Nc2ccc(F)cc21)c1ccc(C(=O)NCC2CCC3(CC2)OOC2(CCCCC2)OO3)cc1 (configuration not stated),32.2 µM,2.49 µM,5.81 µM,3.04 µM,10.8 µM,15.9 µM,48.3 µM,3.69 µM,16.2 µM,2.52 µM,6.47 µM,9.92 µM,29.9 µM,7.74 µM,32.5 µM,14.6 µM,30 µM,4.09 µM,17.5 µM,10.3 µM
O=[N+]([O-])c1cc([As](Br)c2ccc(O)c([N+](=O)[O-])c2)ccc1O,3.21 µM,–,7.02 µM,–,3.51 µM,–,8.81 µM,–,3.61 µM,–,> 25.6 µM,–,3.11 µM,–,3.28 µM,–,2.72 µM,–,4.06 µM,–
Cn1c(=O)n(C)c2cc(CNCCNc3ccnc4cc(Cl)ccc34)ccc21,> 100 µM,50.3 µM,> 100 µM,15.8 µM,31.9 µM,> 100 µM,> 100 µM,15.3 µM,40.1 µM,20.9 µM,60.8 µM,11.2 µM,45.2 µM,26.1 µM,> 100 µM,20.2 µM,52.9 µM,37.3 µM,> 100 µM,72 µM
ClCc1cccc(Cn2cnc3c(Cl)nc(Cl)nc32)c1,–,3.08 µM,9.89 µM,1.69 µM,3.26 µM,2.42 µM,5.23 µM,4.37 µM,17.1 µM,2.36 µM,6.25 µM,1.95 µM,3.76 µM,5.51 µM,20.1 µM,1.61 µM,3.15 µM,1.82 µM,3.79 µM,3.24 µM
CCSc1ccc([C@@H]2[C@@H](O)C(=O)N2c2cc(OC)c(OC)c(OC)c2)cc1,33.7 µM,< 0.0159 µM,80.6 µM,< 0.01 µM,< 0.0112 µM,0.0157 µM,23.9 µM,< 0.01 µM,17.5 µM,< 0.0138 µM,11.9 µM,0.0395 µM,29.4 µM,0.0674 µM,75.8 µM,0.0489 µM,17.4 µM,< 0.0133 µM,33.7 µM,0.521 µM
COc1ccc2c(c1)CN([C@@H](C)[C@H]1CC[C@H]3[C@@H]4CC[C@H]5C[C@@H](O)CC[C@]5(C)[C@H]4CC[C@]13C)CO2,24.3 µM,–,4.51 µM,–,3.48 µM,–,18.6 µM,–,2.98 µM,–,2.47 µM,–,5.19 µM,–,17.8 µM,–,3.01 µM,–,4.31 µM,–
CCCc1nc(Cl)nc(Cl)c1Cl,8.97 µM,–,6.59 µM,–,1.41 µM,–,> 22.4 µM,–,6.89 µM,–,5.66 µM,–,2.07 µM,–,0.289 µM,–,4.57 µM,–,2.77 µM,–
COc1ccc(-c2cnnn2-c2nonc2-n2cccc2)cc1OC,> 100 µM,4.15 µM,> 100 µM,0.716 µM,3.01 µM,2.02 µM,5.99 µM,3.94 µM,44.6 µM,3.75 µM,> 100 µM,5.35 µM,69.4 µM,18.6 µM,> 100 µM,5.53 µM,37.7 µM,2.73 µM,> 100 µM,16.2 µM
C=C1C(=O)O[C@H]2[C@H]1CC/C(COC(=O)N[C@H]1C[C@H](O[C@H]3C[C@](O)(C(=O)CO)Cc4c(O)c5c(c(O)c43)C(=O)c3c(OC)cccc3C5=O)O[C@@H](C)[C@H]1O)=C\CC[C@@]1(C)O[C@@H]21,12.6 µM,> 50 µM,> 50 µM,6.31 µM,22.2 µM,> 50 µM,> 50 µM,45.3 µM,> 50 µM,9.02 µM,> 50 µM,3.21 µM,10.7 µM,3.47 µM,12.3 µM,11.8 µM,28.7 µM,13.2 µM,40.7 µM,5.33 µM
COc1ccc2c(c1)C(=O)/C(=C/c1cccc(OCC(=O)Nc3nc(C)c(C)s3)c1)O2,5.27 µM,0.19 µM,2.41 µM,2.95 µM,13.3 µM,3.76 µM,29.6 µM,12.7 µM,26.3 µM,2.71 µM,8.49 µM,0.121 µM,0.738 µM,2.03 µM,6.91 µM,1.53 µM,3.54 µM,0.075 µM,2.62 µM,1.85 µM
CCn1cc(/C=C2\Oc3cc(OCC#N)ccc3C2=O)c2cc(OC)ccc21,> 44.3 µM,2.48 µM,> 100 µM,0.0764 µM,0.263 µM,0.161 µM,> 32.9 µM,0.221 µM,20.7 µM,0.347 µM,> 100 µM,1.47 µM,> 77.3 µM,11.2 µM,> 100 µM,1.86 µM,> 100 µM,0.546 µM,> 100 µM,6.65 µM
O=C1/C(=C\c2ccco2)Oc2ccccc21,> 100 µM,–,> 100 µM,–,> 100 µM,–,> 100 µM,–,> 100 µM,–,> 100 µM,–,> 100 µM,–,> 100 µM,–,> 100 µM,–,> 100 µM,–
